Reference: ChEMBL document CHEMBL1909046, “DrugMatrix in vitro pharmacology data”

How the values were obtained:
Melanocortin receptor 4 = Melanocortin receptor 4 (Homo sapiens, UniProt P32245); type: cell membranes, Membrane; settings: hek293; further: in other assays of this panel Not Active means under 50% inhibition at 10 µM
[1] = DRUGMATRIX: Interleukin IL-1 radioligand binding (ligand: [125I] interleukin 1beta); type: cell membranes, Membrane; settings: nih3t3; Not Active = under 50% inhibition at 10 µM
[2] = DRUGMATRIX: Phosphodiesterase PDE3 enzyme inhibition (substrate: [3H]cAMP + cAMP); type: tissue-based, Homo sapiens; settings: platelet; Not Active = under 50% inhibition at 10 µM
Cathepsin G = molecular target: T1, Cathepsin G (Homo sapiens, UniProt P08311); type: tissue-based; settings: neutrophil;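 further: inhibition of Cathepsin G enzyme activity, tested on an AMC-conjugated peptide substrate; in other assays of this panel Not Active means under 50% inhibition at 10 µM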
T1 sequence (P08311 whole entry): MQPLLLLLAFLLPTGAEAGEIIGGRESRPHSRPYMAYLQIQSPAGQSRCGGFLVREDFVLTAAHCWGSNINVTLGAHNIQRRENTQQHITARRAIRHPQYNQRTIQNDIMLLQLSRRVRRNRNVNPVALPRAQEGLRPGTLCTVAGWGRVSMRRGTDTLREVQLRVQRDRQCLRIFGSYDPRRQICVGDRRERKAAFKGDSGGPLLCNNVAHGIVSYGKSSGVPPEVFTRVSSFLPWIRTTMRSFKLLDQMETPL

[3] = molecular target: T2, 5-hydroxytryptamine receptor 1A (Rattus norvegicus, UniProt P19327); type: cell membranes, CHO-K1, Membrane; settings: cho-k1; further: in other assays of this panel Not Active means under 50% inhibition at 10 µM
T2 sequence (P19327 whole entry): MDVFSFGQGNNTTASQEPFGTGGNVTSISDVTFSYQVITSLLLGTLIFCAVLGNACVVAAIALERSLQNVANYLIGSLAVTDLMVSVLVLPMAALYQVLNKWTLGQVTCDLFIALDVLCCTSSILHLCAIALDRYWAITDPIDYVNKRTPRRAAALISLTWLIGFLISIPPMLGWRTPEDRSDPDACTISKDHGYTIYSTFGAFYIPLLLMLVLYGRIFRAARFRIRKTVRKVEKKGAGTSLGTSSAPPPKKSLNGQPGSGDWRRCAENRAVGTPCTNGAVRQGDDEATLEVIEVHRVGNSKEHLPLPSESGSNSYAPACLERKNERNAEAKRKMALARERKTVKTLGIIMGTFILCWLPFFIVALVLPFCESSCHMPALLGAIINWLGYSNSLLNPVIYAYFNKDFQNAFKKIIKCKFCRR

[4] = molecular target: T3, Nitric oxide synthase, inducible (Mus musculus, UniProt P29477); design: species or system Escherichia coli;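 further: inhibition of iNOS enzyme activity measured with L-arginine as substrate; in other assays of this panel Not Active means under 50% inhibition at 10 µM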
T3 sequence (P29477 whole entry): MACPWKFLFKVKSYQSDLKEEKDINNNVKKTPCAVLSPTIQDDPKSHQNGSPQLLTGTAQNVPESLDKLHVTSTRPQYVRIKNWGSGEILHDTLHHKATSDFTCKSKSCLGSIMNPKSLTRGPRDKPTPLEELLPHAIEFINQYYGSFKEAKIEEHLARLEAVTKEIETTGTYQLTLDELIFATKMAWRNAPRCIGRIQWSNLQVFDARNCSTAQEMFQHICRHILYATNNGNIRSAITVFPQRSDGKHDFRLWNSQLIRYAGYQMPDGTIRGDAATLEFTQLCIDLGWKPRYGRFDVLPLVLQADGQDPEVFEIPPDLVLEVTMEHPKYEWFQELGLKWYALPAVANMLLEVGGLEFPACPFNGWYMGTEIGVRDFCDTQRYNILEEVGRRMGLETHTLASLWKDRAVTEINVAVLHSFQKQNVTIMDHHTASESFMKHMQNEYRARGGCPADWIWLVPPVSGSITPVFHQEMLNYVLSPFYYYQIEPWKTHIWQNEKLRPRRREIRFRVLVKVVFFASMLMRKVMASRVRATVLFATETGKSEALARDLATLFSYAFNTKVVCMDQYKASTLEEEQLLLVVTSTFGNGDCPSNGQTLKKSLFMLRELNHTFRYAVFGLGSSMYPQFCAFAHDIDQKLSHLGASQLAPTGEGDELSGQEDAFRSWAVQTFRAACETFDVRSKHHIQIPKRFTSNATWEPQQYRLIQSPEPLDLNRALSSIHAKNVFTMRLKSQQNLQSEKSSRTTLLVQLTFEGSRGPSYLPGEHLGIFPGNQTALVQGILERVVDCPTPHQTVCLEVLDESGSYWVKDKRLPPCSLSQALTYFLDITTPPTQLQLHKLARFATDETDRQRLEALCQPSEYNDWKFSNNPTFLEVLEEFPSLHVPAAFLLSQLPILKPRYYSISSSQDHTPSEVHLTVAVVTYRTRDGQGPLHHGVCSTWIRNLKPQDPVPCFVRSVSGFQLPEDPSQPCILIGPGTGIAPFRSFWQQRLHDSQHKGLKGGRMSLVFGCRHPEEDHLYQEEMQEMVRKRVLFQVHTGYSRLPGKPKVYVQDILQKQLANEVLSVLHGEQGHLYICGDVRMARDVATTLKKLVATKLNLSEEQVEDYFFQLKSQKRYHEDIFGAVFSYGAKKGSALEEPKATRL

[5] = DRUGMATRIX: GABAA, Chloride Channel, TBOB radioligand binding (ligand: [3H] TBOB); type: cell membranes, Rattus norvegicus, Wistar, Cerebral cortex, Membrane; settings: Not Active = under 50% inhibition at 10 µM
[6] = molecular target: Aldo-keto reductase family 1 member B1 (Rattus norvegicus, UniProt P07943); type: tissue-based, Lens of camera-type eye
[7] = DRUGMATRIX: Potassium Channel [KATP] radioligand binding (ligand: [3H] Glyburide); type: cell membranes, Membrane; settings: hit-t15; Not Active = under 50% inhibition at 10 µM
[8] = molecular target: T4, Alpha-2A adrenergic receptor (Homo sapiens, UniProt P08913); type: cell membranes, Sf9, Membrane; settings: sf9; further: in other assays of this panel Not Active means under 50% inhibition at 10 µM
T4 sequence (P08913 whole entry): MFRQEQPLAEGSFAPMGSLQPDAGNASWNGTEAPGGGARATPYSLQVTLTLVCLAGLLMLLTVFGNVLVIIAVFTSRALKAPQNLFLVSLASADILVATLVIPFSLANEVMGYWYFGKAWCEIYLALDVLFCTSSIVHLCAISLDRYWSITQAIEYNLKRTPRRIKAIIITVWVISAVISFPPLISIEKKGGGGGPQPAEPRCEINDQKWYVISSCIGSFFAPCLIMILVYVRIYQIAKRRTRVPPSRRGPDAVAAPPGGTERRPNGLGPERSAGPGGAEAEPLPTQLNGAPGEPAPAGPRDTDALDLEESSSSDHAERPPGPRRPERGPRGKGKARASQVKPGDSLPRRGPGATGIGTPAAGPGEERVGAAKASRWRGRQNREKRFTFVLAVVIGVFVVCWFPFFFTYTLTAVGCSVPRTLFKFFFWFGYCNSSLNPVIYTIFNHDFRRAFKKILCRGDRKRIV

[9] = molecular target: Vascular endothelial growth factor receptor 1 (Homo sapiens, UniProt P17948); type: cell-based; settings: huvec; further: in other assays of this panel Not Active means under 50% inhibition at 10 µM
Vascular endothelial growth factor receptor 1, sequence (P17948 whole entry): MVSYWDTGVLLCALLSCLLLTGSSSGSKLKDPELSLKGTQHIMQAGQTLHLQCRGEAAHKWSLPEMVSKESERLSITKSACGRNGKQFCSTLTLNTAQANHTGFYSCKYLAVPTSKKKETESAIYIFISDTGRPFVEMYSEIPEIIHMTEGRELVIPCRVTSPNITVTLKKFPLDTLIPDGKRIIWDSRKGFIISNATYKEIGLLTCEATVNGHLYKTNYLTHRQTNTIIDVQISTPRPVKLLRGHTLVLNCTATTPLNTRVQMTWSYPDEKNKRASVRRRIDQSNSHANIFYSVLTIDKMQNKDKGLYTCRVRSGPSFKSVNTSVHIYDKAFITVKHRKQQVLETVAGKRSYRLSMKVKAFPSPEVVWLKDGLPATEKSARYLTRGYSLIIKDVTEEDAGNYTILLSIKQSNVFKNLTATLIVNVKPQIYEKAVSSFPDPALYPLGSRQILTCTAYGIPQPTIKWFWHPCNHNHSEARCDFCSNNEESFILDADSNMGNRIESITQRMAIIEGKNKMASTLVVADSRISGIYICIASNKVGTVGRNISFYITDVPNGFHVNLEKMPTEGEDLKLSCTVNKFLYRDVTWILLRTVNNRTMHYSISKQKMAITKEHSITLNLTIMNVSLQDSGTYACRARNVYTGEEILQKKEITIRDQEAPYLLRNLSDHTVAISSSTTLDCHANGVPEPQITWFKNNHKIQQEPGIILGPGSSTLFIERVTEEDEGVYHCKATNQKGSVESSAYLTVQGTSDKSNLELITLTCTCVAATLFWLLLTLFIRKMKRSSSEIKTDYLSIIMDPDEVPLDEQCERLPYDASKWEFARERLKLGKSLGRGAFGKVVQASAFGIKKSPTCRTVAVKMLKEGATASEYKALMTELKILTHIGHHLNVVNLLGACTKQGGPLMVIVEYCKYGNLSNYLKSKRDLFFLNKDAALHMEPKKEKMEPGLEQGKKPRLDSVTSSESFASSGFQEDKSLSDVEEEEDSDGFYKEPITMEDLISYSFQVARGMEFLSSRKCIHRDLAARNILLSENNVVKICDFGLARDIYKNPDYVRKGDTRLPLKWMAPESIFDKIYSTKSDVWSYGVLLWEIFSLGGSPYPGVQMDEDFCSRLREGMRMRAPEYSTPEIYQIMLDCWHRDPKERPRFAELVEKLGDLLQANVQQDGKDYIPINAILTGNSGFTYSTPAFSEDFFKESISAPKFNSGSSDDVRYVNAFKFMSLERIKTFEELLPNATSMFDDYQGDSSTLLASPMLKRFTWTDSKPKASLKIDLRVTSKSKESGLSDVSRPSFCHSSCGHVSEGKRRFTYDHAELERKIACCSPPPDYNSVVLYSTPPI

Melanocortin receptor 4, sequence (P32245 whole entry): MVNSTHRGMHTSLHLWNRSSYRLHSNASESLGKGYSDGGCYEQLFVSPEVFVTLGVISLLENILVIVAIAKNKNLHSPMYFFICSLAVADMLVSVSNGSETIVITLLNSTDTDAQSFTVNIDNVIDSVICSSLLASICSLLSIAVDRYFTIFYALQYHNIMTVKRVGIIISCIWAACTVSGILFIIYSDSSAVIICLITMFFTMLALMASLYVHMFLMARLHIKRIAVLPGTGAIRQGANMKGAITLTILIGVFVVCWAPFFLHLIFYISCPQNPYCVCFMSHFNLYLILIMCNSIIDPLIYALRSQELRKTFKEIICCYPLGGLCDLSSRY

C[C@]12Cc3c[nH]nc3C[C@@H]1CC[C@@H]1[C@@H]2CC[C@@]2(C)[C@H]1CC[C@]2(C)O [STANOZOLOL]
Not Active: IC50 (Melanocortin receptor 4) | IC50 [1] | Ki [1] | IC50 [2] | Ki [2] | IC50 (Cathepsin G) | IC50 [3] | IC50 [4] | IC50 [5] | Ki [5] | IC50 [6] | IC50 [7] | Ki [7] | IC50 [8] | IC50 [9]

CN(N=O)C(=O)N[C@@H](C=O)[C@@H](O)[C@H](O)[C@H](O)CO [STREPTOZOCIN]
Not Active: IC50 (Melanocortin receptor 4) | IC50 [1] | Ki [1] | IC50 [2] | Ki [2] | IC50 (Cathepsin G) | IC50 [3] | IC50 [4] | IC50 [5] | Ki [5] | IC50 [6] | IC50 [7] | Ki [7] | IC50 [8] | IC50 [9]

Cc1cc(NS(=O)(=O)c2ccc(N)cc2)no1 [SULFAMETHOXAZOLE]
Not Active: IC50 (Melanocortin receptor 4) | IC50 [1] | Ki [1] | IC50 [2] | Ki [2] | IC50 (Cathepsin G) | IC50 [3] | IC50 [4] | IC50 [5] | Ki [5] | IC50 [6] | IC50 [7] | Ki [7] | IC50 [8] | IC50 [9]

Nc1ccc(S(N)(=O)=O)cc1 [SULFANILAMIDE]
Not Active: IC50 (Melanocortin receptor 4) | IC50 [1] | Ki [1] | IC50 [2] | Ki [2] | IC50 (Cathepsin G) | IC50 [3] | IC50 [4] | IC50 [5] | Ki [5] | IC50 [6] | IC50 [7] | Ki [7] | IC50 [8] | IC50 [9]

Nc1ccc(S(=O)(=O)Nc2ccnn2-c2ccccc2)cc1 [SULFAPHENAZOLE]
Not Active: IC50 (Melanocortin receptor 4) | IC50 [1] | Ki [1] | IC50 [2] | Ki [2] | IC50 (Cathepsin G) | IC50 [3] | IC50 [4] | IC50 [5] | Ki [5] | IC50 [6] | IC50 [7] | Ki [7] | IC50 [8] | IC50 [9]

C=CC[C@@H]1/C=C(\C)C[C@H](C)C[C@H](OC)[C@H]2O[C@@](O)(C(=O)C(=O)N3CCCC[C@H]3C(=O)O[C@H](/C(C)=C/[C@@H]3CC[C@@H](O)[C@H](OC)C3)[C@H](C)[C@@H](O)CC1=O)[C@H](C)C[C@@H]2OC [TACROLIMUS ANHYDROUS]
Not Active: IC50 (Melanocortin receptor 4) | IC50 [1] | Ki [1] | IC50 [2] | Ki [2] | IC50 (Cathepsin G) | IC50 [3] | IC50 [4] | IC50 [5] | Ki [5] | IC50 [6] | IC50 [7] | Ki [7] | IC50 [8] | IC50 [9]

CC1CN(c2cc3c(cc2F)c(=O)c(C(=O)O)cn3-c2ccc(F)cc2F)CCN1 (stereo not given) [TEMAFLOXACIN]
Not Active: IC50 (Melanocortin receptor 4) | IC50 [1] | Ki [1] | IC50 [2] | Ki [2] | IC50 (Cathepsin G) | IC50 [3] | IC50 [4] | IC50 [5] | Ki [5] | IC50 [6] | IC50 [7] | Ki [7] | IC50 [8] | IC50 [9]

CC(C)(C)NCC(O)c1cc(O)cc(O)c1 (stereo not given) [TERBUTALINE]
Not Active: IC50 (Melanocortin receptor 4) | IC50 [1] | Ki [1] | IC50 [2] | Ki [2] | IC50 (Cathepsin G) | IC50 [3] | IC50 [4] | IC50 [5] | Ki [5] | IC50 [6] | IC50 [7] | Ki [7] | IC50 [8] | IC50 [9]

CN(C)[C@@H]1C(O)=C(C(N)=O)C(=O)[C@@]2(O)C(O)=C3C(=O)c4c(O)cccc4[C@@](C)(O)[C@H]3C[C@@H]12 [TETRACYCLINE]
Not Active: IC50 (Melanocortin receptor 4) | IC50 [1] | Ki [1] | IC50 [2] | Ki [2] | IC50 (Cathepsin G) | IC50 [3] | IC50 [4] | IC50 [5] | Ki [5] | IC50 [6] | IC50 [7] | Ki [7] | IC50 [8] | IC50 [9]
